Source: US9340559B2, “Proteasome inhibitor delanzomib for use in the treatment of lupus” (Cephalon, Inc., priority 2011, dated 2016)
Read-outs that look alike come from different tables or passages of the source.

Test system: NZM mice
Format: in vivo, mouse

SMILES: CC(C)C[C@H](NC(=O)[C@@H](NC(=O)c1cccc(-c2ccccc2)n1)[C@@H](C)O)B(O)O [COMPOUND A, [(1R)-1-[[(2S,3R)-3-hydroxy-2-[6-phenyl-pyridine-2-carbonyl)amino]-1-oxobutyl]amino]-3-methylbutylboronic acid]
- p, serum MIG concentration vs G9 Vehicle 1× wk ip (G1 3 mg/kg 1× wk ip): NS (NS = not significant (p > 0.05))
- p, serum TNFα concentration vs G5 Bortezomib 0.3 mg/kg 1× wk ip (G1 3 mg/kg 1× wk ip): NS (NS = not significant (p > 0.05))
- p, serum TNFα concentration vs G6 Bortezomib 0.3 mg/kg 2× wk ip (G1 3 mg/kg 1× wk ip): NS (NS = not significant (p > 0.05))
- p, serum TNFα concentration vs G7 CTX 50 mg/kg 1× wk ip (G1 3 mg/kg 1× wk ip): NS (NS = not significant (p > 0.05))
- p, serum TNFα concentration vs G8 Dex 1.5 mg/kg 3× wk ip (G1 3 mg/kg 1× wk ip): p <0.001
- p, serum TNFα concentration vs G9 Vehicle 1× wk ip (G1 3 mg/kg 1× wk ip): NS (NS = not significant (p > 0.05))
- Cytokine IL-12 AUC, percent change vs vehicle (G1 3 mg/kg ip, 1× wk): −83%
- Cytokine IL-13 AUC, percent change vs vehicle (G1 3 mg/kg ip, 1× wk): −27%
- Cytokine IL-17A AUC, percent change vs vehicle (G1 3 mg/kg ip, 1× wk): −41%
- Cytokine IP-10 AUC, percent change vs vehicle (G1 3 mg/kg ip, 1× wk): +17%
- Cytokine MIG AUC, percent change vs vehicle (G1 3 mg/kg ip, 1× wk): −55%
- Cytokine TNFα AUC, percent change vs vehicle (G1 3 mg/kg ip, 1× wk): −61%
- serum IL-12p40/p70 decrease vs vehicle (G1: 3 mg/kg ip once per week): 83%
- p, serum IL-12p40/p70 concentration vs G5 Bortezomib 0.3 mg/kg 1× wk ip (G2 3 mg/kg 2× wk ip): NS (NS = not significant (p > 0.05))
- p, serum IL-12p40/p70 concentration vs G6 Bortezomib 0.3 mg/kg 2× wk ip (G2 3 mg/kg 2× wk ip): NS (NS = not significant (p > 0.05))
- p, serum IL-12p40/p70 concentration vs G7 CTX 50 mg/kg 1× wk ip (G2 3 mg/kg 2× wk ip): NS (NS = not significant (p > 0.05))
- p, serum IL-12p40/p70 concentration vs G8 Dex 1.5 mg/kg 3× wk ip (G2 3 mg/kg 2× wk ip): NS (NS = not significant (p > 0.05))
- p, serum IL-12p40/p70 concentration vs G9 Vehicle 1× wk ip (G2 3 mg/kg 2× wk ip): p < 0.01
- p, serum IL-13 concentration vs G5 Bortezomib 0.3 mg/kg 1× wk ip (G2 3 mg/kg 2× wk ip): NS (NS = not significant (p > 0.05))
- p, serum IL-13 concentration vs G6 Bortezomib 0.3 mg/kg 2× wk ip (G2 3 mg/kg 2× wk ip): NS (NS = not significant (p > 0.05))
- p, serum IL-13 concentration vs G7 CTX 50 mg/kg 1× wk ip (G2 3 mg/kg 2× wk ip): P < 0.001
- p, serum IL-13 concentration vs G8 Dex 1.5 mg/kg 3× wk ip (G2 3 mg/kg 2× wk ip): NS (NS = not significant (p > 0.05))
- p, serum IL-13 concentration vs G9 Vehicle 1× wk ip (G2 3 mg/kg 2× wk ip): NS (NS = not significant (p > 0.05))
- p, serum IL-17A concentration vs G5 Bortezomib 0.3 mg/kg 1× wk ip (G2 3 mg/kg 2× wk ip): NS (NS = not significant (p > 0.05))
- p, serum IL-17A concentration vs G6 Bortezomib 0.3 mg/kg 2× wk ip (G2 3 mg/kg 2× wk ip): NS (NS = not significant (p > 0.05))
- p, serum IL-17A concentration vs G7 CTX 50 mg/kg 1× wk ip (G2 3 mg/kg 2× wk ip): p < 0.001
- p, serum IL-17A concentration vs G8 Dex 1.5 mg/kg 3× wk ip (G2 3 mg/kg 2× wk ip): NS (NS = not significant (p > 0.05))
- p, serum IL-17A concentration vs G9 Vehicle 1× wk ip (G2 3 mg/kg 2× wk ip): NS (NS = not significant (p > 0.05))
- p, serum IP-10 concentration vs G5 Bortezomib 0.3 mg/kg 1× wk ip (G2 3 mg/kg 2× wk ip): NS (NS = not significant (p > 0.05))
- p, serum IP-10 concentration vs G6 Bortezomib 0.3 mg/kg 2× wk ip (G2 3 mg/kg 2× wk ip): NS (NS = not significant (p > 0.05))
- p, serum IP-10 concentration vs G7 CTX 50 mg/kg 1× wk ip (G2 3 mg/kg 2× wk ip): p < 0.001
- p, serum IP-10 concentration vs G8 Dex 1.5 mg/kg 3× wk ip (G2 3 mg/kg 2× wk ip): NS (NS = not significant (p > 0.05))
- p, serum IP-10 concentration vs G9 Vehicle 1× wk ip (G2 3 mg/kg 2× wk ip): NS (NS = not significant (p > 0.05))
- p, serum MIG concentration vs G5 Bortezomib 0.3 mg/kg 1× wk ip (G2 3 mg/kg 2× wk ip): NS (NS = not significant (p > 0.05))
- p, serum MIG concentration vs G6 Bortezomib 0.3 mg/kg 2× wk ip (G2 3 mg/kg 2× wk ip): NS (NS = not significant (p > 0.05))
- p, serum MIG concentration vs G7 CTX 50 mg/kg 1× wk ip (G2 3 mg/kg 2× wk ip): p < 0.001
- p, serum MIG concentration vs G8 Dex 1.5 mg/kg 3× wk ip (G2 3 mg/kg 2× wk ip): NS (NS = not significant (p > 0.05))
- p, serum MIG concentration vs G9 Vehicle 1× wk ip (G2 3 mg/kg 2× wk ip): NS (NS = not significant (p > 0.05))
- p, serum TNFα concentration vs G5 Bortezomib 0.3 mg/kg 1× wk ip (G2 3 mg/kg 2× wk ip): NS (NS = not significant (p > 0.05))
- p, serum TNFα concentration vs G6 Bortezomib 0.3 mg/kg 2× wk ip (G2 3 mg/kg 2× wk ip): NS (NS = not significant (p > 0.05))
- p, serum TNFα concentration vs G7 CTX 50 mg/kg 1× wk ip (G2 3 mg/kg 2× wk ip): NS (NS = not significant (p > 0.05))
- p, serum TNFα concentration vs G8 Dex 1.5 mg/kg 3× wk ip (G2 3 mg/kg 2× wk ip): p <0.001
- p, serum TNFα concentration vs G9 Vehicle 1× wk ip (G2 3 mg/kg 2× wk ip): NS (NS = not significant (p > 0.05))
- Cytokine IL-12 AUC, percent change vs vehicle (G2 3 mg/kg ip, 2× wk): −67%
- Cytokine IL-13 AUC, percent change vs vehicle (G2 3 mg/kg ip, 2× wk): −33%
- Cytokine IL-17A AUC, percent change vs vehicle (G2 3 mg/kg ip, 2× wk): −89%
- Cytokine IP-10 AUC, percent change vs vehicle (G2 3 mg/kg ip, 2× wk): −30%
- Cytokine MIG AUC, percent change vs vehicle (G2 3 mg/kg ip, 2× wk): −66%
- Cytokine TNFα AUC, percent change vs vehicle (G2 3 mg/kg ip, 2× wk): −57%
- serum IL-12p40/p70 decrease vs vehicle (G2: 3 mg/kg ip twice weekly): 67%
- serum TNFα compared to Dex (both once and twice weekly doses, p<0.001): decreased serum TNFα over that of Dex
- serum IL-12 decrease vs vehicle, range over the substance's groups (once and twice weekly groups): 67-83%
- serum CXCL9/MIG as compared to CTX (p<0.001 vs CTX, but not to DEX): decreased
- IL-13 serum levels compared to vehicle (treatment groups): No significant change
- IL-17A serum levels compared to vehicle (treatment groups): No significant change
- serum CXCL10/IP-10 decrease vs vehicle (twice weekly dose): 30%
